Measured values as given in US20100298141A1, “SUBSTITUTED PYRIDINE N-OXIDE HERBICIDES” (E. I. DU PONT DE NEMOURS AND COMPANY, priority 2007, published 2010).

Columns and labels:
[1] = test system: velvetleaf; assay: Test A pre-/postemergence greenhouse test; assay type: in vivo, Abutilon theophrasti; settings: for Velvetleaf plant response rating: 0 to 100 scale
Procedure, shortened: (§1)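 Seeds sown in a loam soil–sand blend got a preemergence directed soil spray of compound in a non-phytotoxic solvent mixture containing surfactant. Postemergence sprays of the same formulation went at the same time onto plants 2–10 cm tall at the one- to two-leaf stage. Injury was scored visually against untreated controls after about ten days in the greenhouse.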

[2] = test system: johnsongrass; assay: Test C pre-/postemergence test; assay type: in vivo, Sorghum halepense; settings: for Johnsongrass plant response rating: preemergence, scale 0 (no effect) to 100 (complete control); for Plant response rating, Johnsongrass: scale 0 to 100, 0 no effect, 100 complete control
Procedure, shortened: (§2)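 Compounds in a non-phytotoxic solvent with surfactant applied preemergence to seeded pots and, at the same time, postemergence to plants 2–18 cm tall (1- to 4-leaf stage). Paddy tests: pots flooded to 3 cm, compound applied into the water, depth held throughout.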

[3] = test system: downy brome; assay: Test C pre-/postemergence test; assay type: in vivo, Bromus tectorum; settings: for Plant response rating, Bromegrass, Downy: scale 0 to 100, 0 no effect, 100 complete control
Procedure, shortened: as §2

[4] = test system: morningglory; assay: Test C pre-/postemergence test; assay type: in vivo, Ipomoea coccinea; settings: for Plant response rating, Morningglory: scale 0 to 100, 0 no effect, 100 complete control
Procedure, shortened: as §2

[5] = test system: velvetleaf; assay: Test C pre-/postemergence test; assay type: in vivo, Abutilon theophrasti; settings: Postemergence; for Plant response rating, Velvetleaf: scale 0 to 100, 0 no effect, 100 complete control
Procedure, shortened: as §2

[6] = test system: wild oat; assay: Test C pre-/postemergence test; assay type: in vivo, Avena fatua; settings: for Plant response rating, Oat, Wild: scale 0 to 100, 0 no effect, 100 complete control
Procedure, shortened: as §2

[7] = test system: catchweed bedstraw; assay: Test C pre-/postemergence test; assay type: in vivo, Galium aparine
Excerpt: Seeds of plant species selected from blackgrass (Alopecurus myosuroides), downy brome (Bromus tectorum), green foxtail (Setaria viridis), Italian ryegrass (Lolium multiflorum), wheat (Triticum aestivum), wild oat (Avena fatua), catchweed bedstraw (Galium aparine), Russian thistle (Salsola kali), […] (Cynodon dactylon), Surinam grass (Brachiaria decumbens), cocklebur (Xanthium strumarium), corn (Zea mays), crabgrass (Digitaria sanguinalis), woolly cupgrass (Eriochloa villosa), giant foxtail (Setaria faberii), Goosegrass (Eleusin indica), johnsongrass (Sorghum halepense), kochia (Kochia scoparia), lambsquarters (Chenopodium album), morningglory (Ipomoea coccinea), eastern black nightshade (Solanum ptycanthum), yellow nutsedge (Cyperus esculentus), pigweed (Amaranthus retroflexus), common ragweed (Ambrosia elation), soybean (Glycine max), common (oilseed) sunflower (Helianthus annuus), and velvetleaf (Abutilon theophrasti) were planted and treated preemergence with test chemicals formulated in a non-phytotoxic solvent mixture which included a surfactant. At the same time, plants selected from these crop and weed species and also winter barley (Hordeum vulgare), canarygrass (Phalaris minor), and chickweed (Stellaria media) were treated with postemergence applications of some of the test chemicals formulated in the same manner. Plants ranged in height from 2 to 18 cm (1- to 4-leaf stage) for postemergence treatments. […] At time of treatment, test pots were flooded to 3 cm above the soil surface, treated by application of test compounds directly to the paddy water, and then maintained at that water depth for the duration of the test. […] A dash (-) response means no test result.

[8] = test system: wheat; assay: Test C pre-/postemergence test; assay type: in vivo, Triticum aestivum; settings: for Wheat plant response rating: preemergence, scale 0 (no effect) to 100 (complete control); for Plant response rating, Wheat: scale 0 to 100, 0 no effect, 100 complete control
Procedure, shortened: as §2

[9] = test system: wheat; assay: Test A pre-/postemergence greenhouse test; assay type: in vivo, Triticum aestivum; settings: for Wheat plant response rating: 0 to 100 scale
Procedure, shortened: as §1

[10] = test system: giant foxtail; assay: Test C pre-/postemergence test; assay type: in vivo, Setaria faberii; settings: for Plant response rating, Foxtail, Giant: scale 0 to 100, 0 no effect, 100 complete control
Procedure, shortened: as §2

[11] = test system: redroot pigweed; assay: Test A pre-/postemergence greenhouse test; assay type: in vivo, Amaranthus retroflexus; settings: for Pigweed plant response rating: 0 to 100 scale
Procedure, shortened: as §1

[12] = test system: woolly cupgrass; assay: Test C pre-/postemergence test; assay type: in vivo, Eriochloa villosa; settings: for Plant response rating, Cupgrass, Woolly: scale 0 to 100, 0 no effect, 100 complete control
Procedure, shortened: as §2

[13] = test system: corn; assay: Test C pre-/postemergence test; assay type: in vivo, Zea mays; settings: for Plant response rating, Corn: scale 0 to 100, 0 no effect, 100 complete control
Procedure, shortened: as §2

[14] = test system: rice; assay: Test C flooded paddy test; assay type: in vivo, Oryza sativa; settings: Flood
Procedure, shortened: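 Test compounds are applied straight into paddy water held 3 cm above the soil surface, with that flood maintained for the whole test. After 13 to 15 days in the greenhouse, each species is scored visually relative to controls.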

[15] = test system: eastern black nightshade; assay: Test C pre-/postemergence test; assay type: in vivo, Solanum ptycanthum
Procedure, shortened: as §2

[16] = test system: yellow nutsedge; assay: Test C pre-/postemergence test; assay type: in vivo, Cyperus esculentus; settings: for Plant response rating, Nutsedge, Yellow: scale 0 to 100, 0 no effect, 100 complete control
Procedure, shortened: as §2

[17] = Postemergence, 125 g ai/ha, 0 is no effect, 100 is complete control
[18] = Postemergence, 500 g ai/ha, 0 is no effect, 100 is complete control
[19] = Preemergence, 125 g ai/ha, 0 no effect, 100 complete control
[20] = Preemergence, 500 g ai/ha, 0 to 100 scale where 0 is no effect and 100 is complete control
[21] = 31 g ai/ha, Preemergence, scale 0 to 100
[22] = 62 g ai/ha, preemergence, scale 0 (no effect) to 100 (complete control)
[23] = preemergence, 125 g ai/ha, scale 0 (no effect) to 100 (complete control)

SMILES: Cn1nc(C(F)(F)F)c(C[S+]([O-])c2cccc[n+]2[O-])c1OC(F)F (centres unmarked) [Compound 3]
- Velvetleaf plant response rating [1, 17]: 50
- Velvetleaf plant response rating [1, 18]: 90
- Velvetleaf plant response rating [1, 19]: 70
- Plant response rating, Velvetleaf [1, 20]: 90
- Johnsongrass plant response rating ([2]; 62 g ai/ha): 98
- Plant response rating (0 to 100), Johnsongrass ([2]; Postemergence, 31 g ai/ha): 0
- Plant response rating, Johnsongrass ([2]; Postemergence, 62 g ai/ha): 0
- Plant response rating, Johnsongrass ([2]; Postemergence, 125 g ai/ha): 20
- Plant response rating, Johnsongrass ([2]; Postemergence, 250 g ai/ha): 20
- Plant response rating (0 to 100), Johnsongrass ([2]; Preemergence, 250 g ai/ha): 100
- Johnsongrass plant response rating ([2]; 125 g ai/ha): 100
- Bromegrass, Downy plant response rating [3, 21]: 0
- Bromegrass, Downy plant response rating [3, 22]: 60
- Plant response rating (0 to 100), Bromegrass, Downy ([3]; Postemergence, 31 g ai/ha): 0
- Plant response rating, Bromegrass, Downy ([3]; Postemergence, 62 g ai/ha): 0
- Plant response rating, Bromegrass, Downy ([3]; Postemergence, 125 g ai/ha): 0
- Plant response rating, Bromegrass, Downy ([3]; Postemergence, 250 g ai/ha): 0
- Plant response rating (0 to 100), Bromegrass, Downy ([3]; Preemergence, 250 g ai/ha): 100
- Bromegrass, Downy plant response rating [3, 23]: 98
- Morningglory plant response rating [4, 21]: 50
- Morningglory plant response rating [4, 22]: 90
- Plant response rating (0 to 100), Morningglory ([4]; Postemergence, 31 g ai/ha): 5
- Plant response rating, Morningglory ([4]; Postemergence, 62 g ai/ha): 50
- Plant response rating, Morningglory ([4]; Postemergence, 125 g ai/ha): 50
- Plant response rating, Morningglory ([4]; Postemergence, 250 g ai/ha): 50
- Plant response rating (0 to 100), Morningglory ([4]; Preemergence, 250 g ai/ha): 100
- Morningglory plant response rating [4, 23]: 100
- Plant response rating (0 to 100), Velvetleaf ([5]; 31 g ai/ha): 10
- Plant response rating (0 to 100), Velvetleaf ([5]; 62 g ai/ha): 10
- Plant response rating, Velvetleaf ([5]; 125 g ai/ha): 60
- Plant response rating, Velvetleaf ([5]; 250 g ai/ha): 65
- Oat, Wild plant response rating [6, 21]: 30
- Oat, Wild plant response rating [6, 22]: 40
- Plant response rating (0 to 100), Oat, Wild ([6]; Postemergence, 31 g ai/ha): 0
- Plant response rating, Oat, Wild ([6]; Postemergence, 62 g ai/ha): 0
- Plant response rating, Oat, Wild ([6]; Postemergence, 125 g ai/ha): 0
- Plant response rating, Oat, Wild ([6]; Postemergence, 250 g ai/ha): 0
- Plant response rating (0 to 100), Oat, Wild ([6]; Preemergence, 250 g ai/ha): 100
- Oat, Wild plant response rating [6, 23]: 80
- Galium plant response rating [7, 21]: 0
- Galium plant response rating [7, 22]: 0
- Plant response rating (0 to 100), Galium ([7]; Preemergence, 250 g ai/ha): 100
- Galium plant response rating [7, 23]: 95
- Wheat plant response rating ([8]; 62 g ai/ha): 20
- Plant response rating (0 to 100), Wheat ([8]; Postemergence, 31 g ai/ha): 0
- Plant response rating (0 to 100), Wheat ([8]; Postemergence, 62 g ai/ha): 0
- Plant response rating, Wheat ([8]; Postemergence, 125 g ai/ha): 0
- Plant response rating, Wheat ([8]; Postemergence, 250 g ai/ha): 0
- Plant response rating (0 to 100), Wheat ([8]; Preemergence, 250 g ai/ha): 80
- Wheat plant response rating ([8]; 125 g ai/ha): 70
- Wheat plant response rating [9, 17]: 60
- Wheat plant response rating [9, 18]: 70
- Wheat plant response rating [9, 19]: 60
- Plant response rating, Wheat [9, 20]: 100
- Foxtail, Giant plant response rating [10, 21]: 60
- Foxtail, Giant plant response rating [10, 22]: 90
- Plant response rating (0 to 100), Foxtail, Giant ([10]; Postemergence, 31 g ai/ha): 0
- Plant response rating, Foxtail, Giant ([10]; Postemergence, 62 g ai/ha): 40
- Plant response rating, Foxtail, Giant ([10]; Postemergence, 125 g ai/ha): 50
- Plant response rating, Foxtail, Giant ([10]; Postemergence, 250 g ai/ha): 55
- Plant response rating (0 to 100), Foxtail, Giant ([10]; Preemergence, 250 g ai/ha): 100
- Foxtail, Giant plant response rating [10, 23]: 98
- Pigweed plant response rating [11, 17]: 80
- Pigweed plant response rating [11, 18]: 90
- Pigweed plant response rating [11, 19]: 100
- Plant response rating, Pigweed [11, 20]: 100
- Cupgrass, Woolly plant response rating [12, 21]: 60
- Cupgrass, Woolly plant response rating [12, 22]: 60
- Plant response rating (0 to 100), Cupgrass, Woolly ([12]; Postemergence, 31 g ai/ha): 0
- Plant response rating, Cupgrass, Woolly ([12]; Postemergence, 62 g ai/ha): 0
- Plant response rating, Cupgrass, Woolly ([12]; Postemergence, 125 g ai/ha): 20
- Plant response rating, Cupgrass, Woolly ([12]; Postemergence, 250 g ai/ha): 40
- Plant response rating (0 to 100), Cupgrass, Woolly ([12]; Preemergence, 250 g ai/ha): 100
- Cupgrass, Woolly plant response rating [12, 23]: 85
- Corn plant response rating [13, 21]: 50
- Corn plant response rating [13, 22]: 75
- Plant response rating (0 to 100), Corn ([13]; Postemergence, 31 g ai/ha): 0
- Plant response rating, Corn ([13]; Postemergence, 62 g ai/ha): 5
- Plant response rating, Corn ([13]; Postemergence, 125 g ai/ha): 5
- Plant response rating, Corn ([13]; Postemergence, 250 g ai/ha): 5
- Plant response rating (0 to 100), Corn ([13]; Preemergence, 250 g ai/ha): 98
- Corn plant response rating [13, 23]: 90
- Plant response rating, Rice ([14]; 31 g ai/ha, scale 0 to 100 (0 no effect, 100 complete control)): 0
- Plant response rating, Rice ([14]; 62 g ai/ha, scale 0 to 100, 0 no effect, 100 complete control, 13 to 15 days): 0
- Plant response rating, Rice ([14]; 125 g ai/ha, scale 0 to 100, 0 no effect, 100 complete control, 13 to 15 days): 60
- Plant response rating, Rice ([14]; 250 g ai/ha, scale 0 to 100 (0 no effect, 100 complete control)): 70
- Nightshade plant response rating [15, 21]: 85
- Nightshade plant response rating [15, 22]: 98
- Plant response rating (0 to 100), Nightshade ([15]; Preemergence, 250 g ai/ha): 100
- Nightshade plant response rating [15, 23]: 98
- Nutsedge, Yellow plant response rating [16, 21]: 0
- Nutsedge, Yellow plant response rating [16, 22]: 100
- Plant response rating (0 to 100), Nutsedge, Yellow ([16]; Postemergence, 31 g ai/ha): 0
- Plant response rating, Nutsedge, Yellow ([16]; Postemergence, 62 g ai/ha): 0
- Plant response rating, Nutsedge, Yellow ([16]; Postemergence, 125 g ai/ha): 0
- Plant response rating, Nutsedge, Yellow ([16]; Postemergence, 250 g ai/ha): 0
- Plant response rating (0 to 100), Nutsedge, Yellow ([16]; Preemergence, 250 g ai/ha): 100
- Nutsedge, Yellow plant response rating [16, 23]: 100
